Test results as given in patent US5232917A, “Methods, compositions, and compounds for allosteric modulation of the GABA receptor by members of the androstane and pregnane series” (priority 1991, dated 1993).

Tests used:
[1] = tested on: metrazol induced convulsions; assay: Inhibition of metrazol induced convulsions (Table 2); format: in vivo, mice; conditions: Mus musculus; inhibition of metrazol induced convulsions; read-out: Anti-Metrazol ED50
Experimental: Experiments were also performed to determine the physiological relevance of these interactions by measuring the ability of the compound of and used in the invention to modulate TBPS-induced convulsions in Swiss-Webster mice. […] The time to onset of myoclonus (presence of forelimb clonic activity) induced by TBPS was determined by observing each mouse for a period of 45 minutes. Significant differences between the time to onset in control mice vs. steroid-treated mice were determined by Student's t-test. […] The number of animals with tonic and/or clonic convulsions was recorded. In the maximal electroshock test, 50 mA of current at 60 Hz was delivered through corneal electrodes for 200 msec to induce tonic seizure. […] The ED50 (the dose at which the half-maximal effect occurs) was determined for each screen.
Adult male CFI mice (20-30g) were used in these studies. […] Percent protection against metrazol-induced seizures was plotted against time after administration of the compound. […] Ten to twelve mice were used per dose of test drug. […] The number of animals with tonic and/or clonic convulsions was recorded. The ability of the steroid to abolish the tonic component was defined as the endpoint. Sedative potential was determined by a rotorod test where the number of mice staying on a rotating (6 rpm) rod for ≥1 min. in each of three trials was determined.

[2] = tested on: sedative potential (rotorod); conditions: dissolved in DMSO; Belelli et al., 1989; cited from earlier work
[3] = tested on: picrotoxin-induced convulsions; conditions: dissolved in DMSO; Belelli et al., 1989; cited from earlier work
[4] = tested on: strychnine-induced convulsions; conditions: dissolved in DMSO; Belelli et al., 1989; cited from earlier work
locomotor activity = assay: Locomotor activity in habituated mice; format: in vivo, mice (male N.I.H. Swiss-Webster)
Experimental: For evaluation of a drug's effects on general activity, mice were first habituated to the open-field apparatus for 15 min. The following day, mice were pretreated with a test drug and placed in the center of the activity chambers. The total distance traveled was measured for 10 min.
The vehicle control data were analyzed across test days using an 1-way analysis of variance (ANOVA). […] The dose-response curves were then analyzed using an 1-way ANOVA, followed by Dunnett's t-test for individual comparisons between doses and control. The open-field and habituated locomotor data were analyzed using ANOVA followed by Dunnett's t-test. […] All data is expressed as the mean±S.E.M.

BZ receptor = assay: [3H]flunitrazepam binding to the BZ receptor in rat hippocampal homogenates; conditions: pentobarbital 1.0 mM; 0.25 nM [3H]FLU; no GABA; FIG. 3
[5] = tested on: GABA receptor complex (36Cl uptake, cerebral cortical synaptoneurosomes); assay: GABA-stimulated 36Cl uptake in rat cerebral cortical synaptoneurosomes; format: biochemical, rat (male Sprague-Dawley)
[6] = tested on: GABA receptor-chloride ionophore complex (GR complex); assay: Dissociation kinetics of [35S]TBPS in rat cerebral cortical membranes; format: binding; conditions: alphaxalone 300 nM, 3α-OH-DHP 20 nM
[7] = tested on: maximal electroshock seizure; conditions: dissolved in DMSO; Belelli et al., 1989; cited from earlier work
Rotorod test = conditions: mouse, in vivo, ip
Experimental: Adult male CFI mice (20-30g) were used in these studies. […] Ten to twelve mice were used per dose of test drug. […] Sedative potential was determined by a rotorod test where the number of mice staying on a rotating (6 rpm) rod for ≥1 min. in each of three trials was determined.

estrogen receptor = molecular target: T1, estrogen receptor (Bos taurus, UniProt P49884); assay: Inhibition of 3H-estradiol binding to bovine uteral estrogen receptors; conditions: read-out: % of inhibition of 3H-estradiol binding, B, competitor 10^-6 M; 0.25 nM 3H-estradiol
T1 construct: from tissue; host or cells: bovine uterus cytosol
T1 sequence (P49884 1-596): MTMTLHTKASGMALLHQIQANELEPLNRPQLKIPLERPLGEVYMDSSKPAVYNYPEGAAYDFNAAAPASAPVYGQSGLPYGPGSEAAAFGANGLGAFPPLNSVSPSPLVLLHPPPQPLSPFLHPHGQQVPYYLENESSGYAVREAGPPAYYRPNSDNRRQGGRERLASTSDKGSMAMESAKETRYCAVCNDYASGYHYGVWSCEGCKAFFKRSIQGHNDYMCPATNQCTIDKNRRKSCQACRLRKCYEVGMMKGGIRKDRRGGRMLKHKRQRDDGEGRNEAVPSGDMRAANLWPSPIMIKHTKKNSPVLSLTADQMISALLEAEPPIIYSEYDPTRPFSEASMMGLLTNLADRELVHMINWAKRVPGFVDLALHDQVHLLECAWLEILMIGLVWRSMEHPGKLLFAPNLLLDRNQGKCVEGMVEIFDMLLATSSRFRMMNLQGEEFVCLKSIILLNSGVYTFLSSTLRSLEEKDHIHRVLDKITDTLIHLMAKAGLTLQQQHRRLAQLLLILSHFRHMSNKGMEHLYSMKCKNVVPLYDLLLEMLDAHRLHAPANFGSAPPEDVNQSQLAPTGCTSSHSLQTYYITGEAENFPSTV
Experimental: The hormonal activity of drugs described herein was further studied through testing their potential estrogenic, progestinic, mineralocorticoid and glucocorticoid activities. These activities were analyzed by monitoring the ability of the drugs to inhibit binding of the steroid hormones to their respective hormone receptors.

[8] = Na pentobarbital 30 μM, 2 nM [35S]TBPS

In the case of `CC(=O)[C@H]1CC[C@H]2[C@@H]3CC[C@H]4C[C@H](O)CC[C@]4(C)[C@H]3CC[C@]12C` [Example 3α-OH-DHP, 3α-hydroxy-5α-pregnan-20-one], the ED50 [1] is given as 5 mg/kg, the “ED50 RR (Rotorod)” value [2] is given as 40 to 100 mg/kg and the “ED50 PICRO (picrotoxin)” value [3] is given as 31.7 ± 1.1 mg/kg. For the same molecule, the “ED50 STR (strychnine)” value [4] was greater than 300 mg/kg, the “total distance traveled, acclimated mice” value (locomotor activity; 3α-OH-DHP 20 mg/kg, controls 2061.2±157.7 cm, p<0.01) was 5694.7±608.4 cm and the “effect on locomotor activity” value (locomotor activity; acclimated mice) was “significant increase in locomotor activity”. The “interaction with pentobarbital in the enhancement of [3H]FLU binding” value (BZ receptor) was “does not interact”, the “enhancement of GABA-stimulated 36Cl uptake above GABA alone” value ([5]; 3α-OH-DHP 500 nM alone, GABA 25 μM, FIG. 4) was 60% and the “% enhancement of basal 36Cl uptake” value ([5]; GABA (25 μM) + 3α-OH-DHP (500 nM)) was 194 ± 8%. The “effect on basal 36Cl uptake” value ([5]; steroid alone, no GABA) was “no effect”, the “Total percentage of specific sites, rapid (R)” value ([6]; Na pentobarbital 30 μM) was 35 ± 3% and the “Total percentage of specific sites, slow (S)” value ([6]; Na pentobarbital 30 μM) was 68 ± 3%. The “K-1, slowly dissociating component (S)” value [6, 8] was 0.011 ± 0.002 min⁻¹, the “T1/2, rapidly dissociating component (R)” value [6, 8] was 6.4 ± 1 min and the “T1/2, slowly dissociating component (S)” value [6, 8] was 76 ± 11 min. The “biphasic dissociation mechanism of [35S]TBPS” value ([6]; pentobarbital 30 μM, FIGS. 2A, 2B) was “absent” and the “ED50 MES (maximal electroshock)” value [7] was greater than 300 mg/kg.

`C[C@]12CC[C@@H](O)C[C@@H]1CC[C@@H]1[C@@H]2CC[C@]2(C)[C@@H](C(=O)CO)CC[C@@H]12` [Example 5α-THDOC, 3α,21-dihydroxy-5α-pregnan-20-one] gave an ED50 [1] of 8 mg/kg, a TD50 (Rotorod test) of 22.9 mg/kg and an inhibition at 1 µM (estrogen receptor) of 4%.
